Columns and labels:
LPA1 = LPA1 (Homo sapiens, UniProt Q92633); test: LPA1 antagonism (Kb) in normal human lung fibroblasts; format: cell-based; set-up: LPA1Kb=5.9 nM in normal human lung fibroblasts; endogenous in cells; host or cells: normal human lung fibroblasts
From the text: Compound A is currently in clinical development as a therapy for IPF and PF-ILD.

healthy participants = test: Phase 1 Part A single ascending dose (SAD) and FE/pH cohort: safety, blood pressure; format: in vivo, human; conditions: for Mean SBP: in mmHg (unit assumed); for Maximum of mean (±SD) reduction in DBP from baseline / Maximum of mean (±SD) reduction in SBP from baseline / Time of maximum mean DBP reduction / Time of maximum mean SBP reduction: within 12 h post dose
Procedure: The study was performed in 3 parts in 112 healthy male and female participants, including 24 Japanese participants. Female participants were to be not of childbearing potential. The present study was designed to evaluate the safety and tolerability, PK, and exploratory PD of an oral suspension of Compound A. Parts A and B (Cohort B1 only) enrolled healthy participants and was conducted at a site in The Netherlands and Part B (Cohort B2 to B5) enrolled healthy non-Japanese participants and was conducted at a site in the United Kingdom (UK). Part C enrolled healthy Japanese participants and was conducted at the same site in the UK.
Part A was an SAD study in a planned number of 6 sequential dose escalation cohorts (3, 10, 30, 100, 150, or 250 mg) of 8 healthy participants (6 active+2 placebo) each, under fasted conditions. Eligible participants in Part A (excluding those in Cohort A7 [food effect (FE)/pH cohort]) received a single administration of study drug (Compound A or placebo) under fasted conditions. In Cohort A1 to Cohort A6, sentinel dosing was employed (1 active+1 placebo, followed after 48 hours by the remaining participants of the cohort [5 active+1 placebo]). […] In addition to the 6 ascending dose cohorts, a cohort of 6 healthy participants (Cohort A7; 6 active, 100 mg Compound A) was included to assess the effect of food and pH on the bioavailability of Compound A in a 3-period, open-label, fixed-sequence, crossover design (FE/pH cohort).
Physical examinations, vital sign measurements (including orthostasis testing in Cohort A6, Cohort B3 to B5, and C1 to C3 at selected time points), 12-lead electrocardiogram (ECG), and clinical laboratory evaluations were performed at selected times throughout the study. In addition, Holter monitoring was performed for the first 24 hours post dose on Day 1 in Part A (not in FE/pH cohort), and also for the first 24 hours post dose on Day 1 and Day 14 in Parts B and C. Participants were closely monitored for adverse events (AEs). Blood samples were collected for up to 14 days (follow-up visit) after (last) study drug administration for PK analysis. In addition, blood and urine were collected for exploratory biomarker assessments and for biobanking of samples for potential analyses. Urine was collected for potential PK analysis for up to 96 hours after a single dose of Compound A or placebo was administered in the SAD part, and for up to 24 hours after the first (morning) dose of study drug on Day 1 and for up to 24 hours after the last (morning) dose of study drug on Day 14 in the MAD parts.

[1] = 100 mg Fasted + Famotidine, D 1 2 h
[2] = 100 mg Fasted + Famotidine, D 1 4 h
[3] = 100 mg Fasted + Famotidine, D 1 8 h
[4] = 100 mg Fasted + Famotidine, D 2 24 h
[5] = 100 mg fasted + famotidine (A7)

Chain of LPA1 (Q92633 whole entry): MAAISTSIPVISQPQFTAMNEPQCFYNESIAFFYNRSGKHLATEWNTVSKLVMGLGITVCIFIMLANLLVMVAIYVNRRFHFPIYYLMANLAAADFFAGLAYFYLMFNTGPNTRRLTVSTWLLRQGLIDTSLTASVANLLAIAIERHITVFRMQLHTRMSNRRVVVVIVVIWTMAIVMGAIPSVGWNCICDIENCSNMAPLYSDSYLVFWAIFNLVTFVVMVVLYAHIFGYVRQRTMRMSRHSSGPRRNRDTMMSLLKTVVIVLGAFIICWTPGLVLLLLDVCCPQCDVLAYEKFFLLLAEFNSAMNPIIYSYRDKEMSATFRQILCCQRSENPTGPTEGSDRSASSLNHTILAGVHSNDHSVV

## CCCN(C)C(=O)OCc1c(-c2ccc(O[C@H]3CCC[C@H](C(=O)O)C3)c(C)n2)nnn1C [Compound A, (1S,3S)-3-((2-methyl-6-(1-methyl-5-(((methyl(propyl)carbamoyl)-oxy)methyl)-1H-1,2,3-triazol-4-yl)pyridin-3-yl)oxy)cyclohexane-1-carboxylic acid]
LPA1
  Kb: 5.9 nM
Healthy participants; [1]
  Mean DBP: 67.2 mmHg
  Mean SBP: 111.3
Healthy participants; [2]
  Mean DBP: 65.3 mmHg
  Mean SBP: 106.5
Healthy participants; [3]
  Mean DBP: 63.2 mmHg
  Mean SBP: 105.0
Healthy participants; [4]
  Mean DBP: 71.7 mmHg
  Mean SBP: 118.7
Healthy participants; 100 mg Fasted, D 1 2 h
  Mean DBP: 67.2 mmHg
  Mean SBP: 107.5
Healthy participants; 100 mg Fasted, D 1 4 h
  Mean DBP: 64.2 mmHg
  Mean SBP: 103.8
Healthy participants; 100 mg Fasted, D 1 8 h
  Mean DBP: 63 mmHg
  Mean SBP: 98.0
Healthy participants; 100 mg Fasted, D 2 24 h
  Mean DBP: 69.3 mmHg
  Mean SBP: 115.2
Healthy participants; 100 mg Fed, D 1 2 h
  Mean DBP: 57.2 mmHg
  Mean SBP: 100.5
Healthy participants; 100 mg Fed, D 1 4 h
  Mean DBP: 58.2 mmHg
  Mean SBP: 104.2
Healthy participants; 100 mg Fed, D 1 8 h
  Mean DBP: 58.8 mmHg
  Mean SBP: 100.3
Healthy participants; 100 mg Fed, D 2 24 h
  Mean DBP: 69.3 mmHg
  Mean SBP: 112.8
Healthy participants; 100 mg fasted (A7)
  Maximum of mean (±SD) reduction in DBP from baseline: 12.5 ± 7.06 mmHg
  Maximum of mean (±SD) reduction in SBP from baseline: 25.8 ± 9.54 mmHg
  Time of maximum mean DBP reduction: 5 h
  Time of maximum mean SBP reduction: 8 h
Healthy participants; [5]
  Maximum of mean (±SD) reduction in DBP from baseline: 11.8 ± 8.40 mmHg
  Maximum of mean (±SD) reduction in SBP from baseline: 19.3 ± 17.41 mmHg
  Time of maximum mean DBP reduction: 6 h
  Time of maximum mean SBP reduction: 6 h
Healthy participants; 100 mg fed (A7)
  Maximum of mean (±SD) reduction in DBP from baseline: 12.7 ± 4.18 mmHg
  Maximum of mean (±SD) reduction in SBP from baseline: 18.5 ± 12.94 mmHg
  Time of maximum mean DBP reduction: 5 h
  Time of maximum mean SBP reduction: 6 h
Healthy participants; Cohort A6, 250 mg single dose, 2 sentinel participants dosed
  Dose-limiting events: dose-limiting events observed in a sentinel participant
Healthy participants; SAD 3 mg (A1)
  Maximum of mean (±SD) reduction in SBP from baseline: 5.2 ± 3.43 mmHg
  Time of maximum mean SBP reduction: 2 h
Healthy participants; SAD 3 mg, D 1 2 h
  Mean DBP: 68.3 mmHg
  Mean SBP: 119.5
Healthy participants; SAD 3 mg, D 1 4 h
  Mean DBP: 69.5 mmHg
  Mean SBP: 120.3
Healthy participants; SAD 3 mg, D 1 8 h
  Mean DBP: 68 mmHg
  Mean SBP: 124.5
Healthy participants; SAD 3 mg, D 2 24 h
  Mean DBP: 68.7 mmHg
  Mean SBP: 118.8
Healthy participants; SAD 10 mg (A2)
  Maximum of mean (±SD) reduction in DBP from baseline: 8.8 ± 9.91 mmHg
  Maximum of mean (±SD) reduction in SBP from baseline: 9.5 ± 16.13 mmHg
  Time of maximum mean DBP reduction: 6 h
  Time of maximum mean SBP reduction: 8 h
Healthy participants; SAD 10 mg, D 1 2 h
  Mean DBP: 67.7 mmHg
  Mean SBP: 112.2
Healthy participants; SAD 10 mg, D 1 4 h
  Mean DBP: 68.7 mmHg
  Mean SBP: 110.2
Healthy participants; SAD 10 mg, D 1 8 h
  Mean DBP: 63 mmHg
  Mean SBP: 109.5
Healthy participants; SAD 10 mg, D 2 24 h
  Mean DBP: 71.7 mmHg
  Mean SBP: 118.5
Healthy participants; SAD 30 mg (A3)
  Maximum of mean (±SD) reduction in DBP from baseline: 6.8 ± 1.72 mmHg
  Maximum of mean (±SD) reduction in SBP from baseline: 11.7 ± 7.61 mmHg
  Time of maximum mean DBP reduction: 5 h
  Time of maximum mean SBP reduction: 4 h
Healthy participants; SAD 30 mg, D 1 2 h
  Mean DBP: 66.2 mmHg
  Mean SBP: 107.5
Healthy participants; SAD 30 mg, D 1 4 h
  Mean DBP: 65.2 mmHg
  Mean SBP: 106.0
Healthy participants; SAD 30 mg, D 1 8 h
  Mean DBP: 65.2 mmHg
  Mean SBP: 113.8
Healthy participants; SAD 30 mg, D 2 24 h
  Mean DBP: 71 mmHg
  Mean SBP: 120.2
Healthy participants; SAD 100 mg (A4)
  Maximum of mean (±SD) reduction in DBP from baseline: 9.7 ± 8.64 mmHg
  Maximum of mean (±SD) reduction in SBP from baseline: 15.5 ± 11.59 mmHg
  Time of maximum mean DBP reduction: 5 h
  Time of maximum mean SBP reduction: 2 h
Healthy participants; SAD 100 mg, D 1 2 h
  Mean DBP: 59 mmHg
  Mean SBP: 101.0
Healthy participants; SAD 100 mg, D 1 4 h
  Mean DBP: 58.7 mmHg
  Mean SBP: 101.3
Healthy participants; SAD 100 mg, D 1 8 h
  Mean DBP: 56.3 mmHg
  Mean SBP: 105.0
Healthy participants; SAD 100 mg, D 2 24 h
  Mean DBP: 66 mmHg
  Mean SBP: 114.2
Healthy participants; SAD 150 mg (A5)
  Maximum of mean (±SD) reduction in DBP from baseline: 12.7 ± 5.61 mmHg
  Maximum of mean (±SD) reduction in SBP from baseline: 16.5 ± 8.41 mmHg
  Time of maximum mean DBP reduction: 6 h
  Time of maximum mean SBP reduction: 6 h
Healthy participants; SAD 150 mg, D 1 2 h
  Mean DBP: 58.2 mmHg
  Mean SBP: 105.0
Healthy participants; SAD 150 mg, D 1 4 h
  Mean DBP: 56 mmHg
  Mean SBP: 101.5
Healthy participants; SAD 150 mg, D 1 8 h
  Mean DBP: 57.8 mmHg
  Mean SBP: 107.2
Healthy participants; SAD 150 mg, D 2 24 h
  Mean DBP: 66.2 mmHg
  Mean SBP: 114.7
Healthy participants; SAD cohorts
  Effect on SBP, DBP and heart rate: decreased SBP and DBP dose dependently, reversibly, and mostly asymptomatically with minimal effect on heart rate
Healthy participants; single and multiple dose oral administration to healthy participants
  Safety and tolerability: generally safe and well tolerated
